In the supplement of paper PMC10307832:

Assays:
Assay in all cases: relative viability (nuclei count vs DMSO), 5 days (fraction); higher = more cells survive
BEN = system: BEN
Summary of the method: (§1)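 A single step with final 0.05% Triton X-100, 1% formaldehyde and 1 ug/ml Hoechst fixed the cells and stained nuclei 5 days after treatment. Lung cancer cell lines in 1536-well plates had been treated by pin tool the day after seeding with one drug alone or a fixed anchor-drug dose plus five library-drug doses (not always all listed) in √10 steps, and nuclei were counted on 4× images. Relative viability is the ratio of nuclei in treated wells to nuclei in vehicle wells, taken as the median of duplicate plates.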

ChaGo-K-1 = system: ChaGo-K-1
Summary of the method: as §1

HCC-78 = system: HCC-78
Summary of the method: as §1

LC-2-ad = system: LC-2-ad
Summary of the method: as §1

LCLC-97TM1 = system: LCLC-97TM1
Summary of the method: as §1

LK-2 = system: LK-2
Summary of the method: as §1

LU99A = system: LU99A
Summary of the method: as §1

LXF-289 = system: LXF-289
Summary of the method: as §1

NCI-H1355 = system: NCI-H1355
Summary of the method: as §1

NCI-H1651 = system: NCI-H1651
Summary of the method: as §1

NCI-H1666 = system: NCI-H1666
Summary of the method: as §1

NCI-H1944 = system: NCI-H1944
Summary of the method: as §1

NCI-H1975 = system: NCI-H1975
Summary of the method: as §1

NCI-H2087 = system: NCI-H2087
Summary of the method: as §1

NCI-H358 = system: NCI-H358
Summary of the method: as §1

NCI-H596 = system: NCI-H596
Summary of the method: as §1

NCI-H650 = system: NCI-H650
Summary of the method: as §1

NCI-H661 = system: NCI-H661
Summary of the method: as §1

NCI-H838 = system: NCI-H838
Summary of the method: as §1

PC-3 [JPC-3] = system: PC-3 [JPC-3]
Summary of the method: as §1

SK-MES-1 = system: SK-MES-1
Summary of the method: as §1

O=c1cc(N2CCOCC2)oc2c(-c3cccc4c3sc3ccccc34)cccc12 + C[C@@H](Oc1cc(-c2cnn(C3CCNCC3)c2)cnc1N)c1c(Cl)ccc(F)c1Cl [Crizotinib] (partner 1 µM)
relative viability (BEN; first compound 0.01 µM): 0.853
relative viability (BEN; first compound 0.03162 µM): 0.892
relative viability (BEN; first compound 0.1 µM): 0.877
relative viability (BEN; first compound 0.3162 µM): 0.951
relative viability (BEN; first compound 1 µM): 0.893
relative viability (ChaGo-K-1; first compound 0.01 µM): 1.17
relative viability (ChaGo-K-1; first compound 0.03162 µM): 1.16
relative viability (ChaGo-K-1; first compound 0.1 µM): 1.23
relative viability (ChaGo-K-1; first compound 0.3162 µM): 1.08
relative viability (ChaGo-K-1; first compound 1 µM): 1.08
relative viability (HCC-78; first compound 0.01 µM): 0.342
relative viability (HCC-78; first compound 0.03162 µM): 0.33
relative viability (HCC-78; first compound 0.1 µM): 0.331
relative viability (HCC-78; first compound 0.3162 µM): 0.326
relative viability (HCC-78; first compound 1 µM): 0.353
relative viability (LC-2-ad; first compound 0.01 µM): 0.492
relative viability (LC-2-ad; first compound 0.03162 µM): 0.427
relative viability (LC-2-ad; first compound 0.1 µM): 0.487
relative viability (LC-2-ad; first compound 0.3162 µM): 0.397
relative viability (LC-2-ad; first compound 1 µM): 0.537
relative viability (LCLC-97TM1; first compound 0.01 µM): 0.444
relative viability (LCLC-97TM1; first compound 0.03162 µM): 0.339
relative viability (LCLC-97TM1; first compound 0.3162 µM): 0.281
relative viability (LCLC-97TM1; first compound 1 µM): 0.39
relative viability (LK-2; first compound 0.01 µM): 0.227
relative viability (LK-2; first compound 0.03162 µM): 0.258
relative viability (LK-2; first compound 0.1 µM): 0.219
relative viability (LK-2; first compound 0.3162 µM): 0.193
relative viability (LK-2; first compound 1 µM): 0.243
relative viability (LU99A; first compound 0.01 µM): 0.647
relative viability (LU99A; first compound 0.03162 µM): 0.574
relative viability (LU99A; first compound 0.1 µM): 0.577
relative viability (LU99A; first compound 0.3162 µM): 0.535
relative viability (LU99A; first compound 1 µM): 0.573
relative viability (LXF-289; first compound 0.01 µM): 0.814
relative viability (LXF-289; first compound 0.03162 µM): 0.806
relative viability (LXF-289; first compound 0.1 µM): 0.794
relative viability (LXF-289; first compound 0.3162 µM): 0.789
relative viability (LXF-289; first compound 1 µM): 0.755
relative viability (NCI-H1355; first compound 0.01 µM): 1.17
relative viability (NCI-H1355; first compound 0.03162 µM): 1.12
relative viability (NCI-H1355; first compound 0.3162 µM): 1.11
relative viability (NCI-H1355; first compound 1 µM): 0.941
relative viability (NCI-H1651; first compound 0.01 µM): 0.878
relative viability (NCI-H1651; first compound 0.03162 µM): 0.92
relative viability (NCI-H1651; first compound 0.1 µM): 0.948
relative viability (NCI-H1651; first compound 0.3162 µM): 0.853
relative viability (NCI-H1651; first compound 1 µM): 0.859
relative viability (NCI-H1666; first compound 0.01 µM): 0.971
relative viability (NCI-H1666; first compound 0.03162 µM): 1.05
relative viability (NCI-H1666; first compound 0.1 µM): 0.905
relative viability (NCI-H1666; first compound 0.3162 µM): 0.941
relative viability (NCI-H1666; first compound 1 µM): 0.812
relative viability (NCI-H1944; first compound 0.01 µM): 1.05
relative viability (NCI-H1944; first compound 0.03162 µM): 1.03
relative viability (NCI-H1944; first compound 0.1 µM): 1.18
relative viability (NCI-H1944; first compound 0.3162 µM): 1.03
relative viability (NCI-H1944; first compound 1 µM): 1.04
relative viability (NCI-H1975; first compound 0.01 µM): 0.862
relative viability (NCI-H1975; first compound 0.03162 µM): 0.998
relative viability (NCI-H1975; first compound 0.1 µM): 1.02
relative viability (NCI-H1975; first compound 0.3162 µM): 0.808
relative viability (NCI-H1975; first compound 1 µM): 0.984
relative viability (NCI-H2087; first compound 0.01 µM): 0.884
relative viability (NCI-H2087; first compound 0.03162 µM): 1.07
relative viability (NCI-H2087; first compound 0.1 µM): 0.84
relative viability (NCI-H2087; first compound 0.3162 µM): 0.682
relative viability (NCI-H2087; first compound 1 µM): 0.838
relative viability (NCI-H358; first compound 0.01 µM): 0.498
relative viability (NCI-H358; first compound 0.03162 µM): 0.546
relative viability (NCI-H358; first compound 0.1 µM): 0.794
relative viability (NCI-H358; first compound 0.3162 µM): 0.658
relative viability (NCI-H358; first compound 1 µM): 0.535
relative viability (NCI-H596; first compound 0.01 µM): 0.992
relative viability (NCI-H596; first compound 0.03162 µM): 0.997
relative viability (NCI-H596; first compound 0.1 µM): 0.907
relative viability (NCI-H596; first compound 0.3162 µM): 0.948
relative viability (NCI-H596; first compound 1 µM): 0.882
relative viability (NCI-H650; first compound 0.01 µM): 0.738
relative viability (NCI-H650; first compound 0.03162 µM): 0.82
relative viability (NCI-H650; first compound 0.3162 µM): 0.868
relative viability (NCI-H650; first compound 1 µM): 0.587
relative viability (NCI-H661; first compound 0.01 µM): 1.06
relative viability (NCI-H661; first compound 0.03162 µM): 0.983
relative viability (NCI-H661; first compound 0.1 µM): 0.927
relative viability (NCI-H661; first compound 0.3162 µM): 0.817
relative viability (NCI-H661; first compound 1 µM): 0.92
relative viability (NCI-H838; first compound 0.01 µM): 0.876
relative viability (NCI-H838; first compound 0.03162 µM): 0.77
relative viability (NCI-H838; first compound 0.1 µM): 0.849
relative viability (NCI-H838; first compound 0.3162 µM): 0.744
relative viability (NCI-H838; first compound 1 µM): 0.787
relative viability (PC-3 [JPC-3]; first compound 0.01 µM): 0.931
relative viability (PC-3 [JPC-3]; first compound 0.03162 µM): 0.903
relative viability (PC-3 [JPC-3]; first compound 0.1 µM): 0.938
relative viability (PC-3 [JPC-3]; first compound 0.3162 µM): 0.941
relative viability (PC-3 [JPC-3]; first compound 1 µM): 1.01
relative viability (SK-MES-1; first compound 0.01 µM): 0.965
relative viability (SK-MES-1; first compound 0.03162 µM): 0.991
relative viability (SK-MES-1; first compound 0.1 µM): 1.01
relative viability (SK-MES-1; first compound 0.3162 µM): 1.01
relative viability (SK-MES-1; first compound 1 µM): 1.04
